Biological target: T1, P2X3 receptor (Mus musculus, UniProt Q3UR32)
T1 construct: gene P2rx3; native receptor in cultured mouse trigeminal ganglion neurons (WT)
T1 sequence (Q3UR32 1-397): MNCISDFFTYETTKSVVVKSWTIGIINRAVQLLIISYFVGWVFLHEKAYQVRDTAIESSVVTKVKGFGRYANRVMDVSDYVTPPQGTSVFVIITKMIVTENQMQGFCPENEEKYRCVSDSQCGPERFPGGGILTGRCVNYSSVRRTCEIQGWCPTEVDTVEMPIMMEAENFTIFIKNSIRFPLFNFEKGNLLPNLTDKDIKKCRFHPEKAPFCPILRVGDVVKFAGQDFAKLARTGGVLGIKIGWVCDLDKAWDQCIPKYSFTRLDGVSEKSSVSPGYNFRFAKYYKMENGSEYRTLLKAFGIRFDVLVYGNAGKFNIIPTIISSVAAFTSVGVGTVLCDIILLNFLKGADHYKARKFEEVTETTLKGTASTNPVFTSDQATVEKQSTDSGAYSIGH
Assay: whole-cell patch clamp, agonist concentration-response on native neurons
Assay type: cell-based

SMILES: Nc1ncnc2c1ncn2[C@@H]1O[C@H](COP(=O)(O)CP(=O)(O)OP(=O)(O)O)[C@@H](O)[C@H]1O [α,β-meATP]
- EC50: 6.9 ± 1.1 µM
